According to patent publication US20220370416A1, “COMPOUNDS AND METHODS FOR TARGETED DEGRADATION OF KRAS” (Arvinas Operations, Inc., priority 2020, published 2022):

Experiments:
HiBit-KRAS^G12C [1] = molecular target: T1, HiBit-KRAS^G12C (Homo sapiens, UniProt P01116, G12C); assay: HiBit degradation assay in MiaPaCa-2 HiBit-KRas^G12C cells; assay type: cell-based; conditions: 24 hours
In short: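 DC50 and Dmax come from 4-parameter fits of DMSO-normalized HiBit luminescence after 24 hours' exposure at 37° C to 10 μM–20 nM compound in 0.1% or 0.5% DMSO. Cells: MiaPaCa-2 carrying one endogenously HiBit-tagged KRAS^G12C allele; concentrations causing ≥50% […] viability loss (alamar blue) excluded.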

HiBit-KRAS^G12C [2] = molecular target: T1, HiBit-KRAS^G12C; assay: HiBit degradation assay in SW1573 HiBit-KRas^G12C cells; assay type: cell-based; design: expressed in transfected cells; host or cells: SW1573 (clone E6), modified pcDNA3.1 vector, TK promoter; conditions: 24 hours
In short: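 HiBit-KRAS G12C degradation was measured after a 24 h compound exposure (titrated 10 μM–20 nM) in engineered SW1573 cells. Lytic HiBit luminescence, expressed relative to DMSO controls, yielded DC50 and Dmax from 4-parameter fits. Concentrations causing ≥50% loss in alamar blue viability were omitted as cytotoxic.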

[3] = SW1573 HiBit-KRas^G12C, 0.1% DMSO, read-out: KRas^G12C-HIBit (SW1573; 0.1% DMSO) DC50*
[4] = MIA PaCa-2, MiaPaCa-2 HiBit-KRas^G12C cells, 0.1% DMSO, maximum degradation, read-out: KRas^G12C-HiBiT (MiaPaCa; 0.1% DMSO) DMax
[5] = MIA PaCa-2, MiaPaCa-2 HiBit-KRas^G12C cells, 0.5% DMSO, maximum degradation, read-out: KRas^G12C-HiBiT (MiaPaCa; 0.5% DMSO) DMax
[6] = SW1573, SW1573 HiBit-KRas^G12C, 0.1% DMSO, read-out: KRas^G12C-HiBit (SW1573; 0.1% DMSO) Dmax**
[7] = SW1573, SW1573 HiBit-KRas^G12C, 0.5% DMSO, read-out: KRas^G12C-HiBiT (SW1573; 0.5% DMSO) Dmax**
[8] = read-out: KRas^G12C-HiBiT (MiaPaCa; 0.5% DMSO) IC50, MiaPaCa-2 HiBit-KRas^G12C cells, 0.5% DMSO
[9] = read-out: KRas^G12C-HiBiT (SW1573; 0.5% DMSO) IC50***, SW1573 HiBit-KRas^G12C, 0.5% DMSO

T1 sequence (P01116 1-186 isoform P01116-2 G12C limits assumed): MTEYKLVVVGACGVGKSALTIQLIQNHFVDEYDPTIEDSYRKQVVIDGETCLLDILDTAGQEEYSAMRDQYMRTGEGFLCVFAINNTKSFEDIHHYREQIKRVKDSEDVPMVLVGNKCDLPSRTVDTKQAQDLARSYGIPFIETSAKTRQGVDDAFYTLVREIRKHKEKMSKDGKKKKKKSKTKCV

| Compound | DC50 (HiBit-KRAS^G12C [2]; [3]) [nM] | Dmax (HiBit-KRAS^G12C [1]; [5]) [%] | Dmax (HiBit-KRAS^G12C [2]; [6]) [%] | Dmax (HiBit-KRAS^G12C [2]; [7]) [%] | DC50 (HiBit-KRAS^G12C [1]; [8]) [nM] | DC50 (HiBit-KRAS^G12C [2]; [9]) [nM] | also measured |
| --- | --- | --- | --- | --- | --- | --- | --- |
| C=CC(=O)N1CCN(c2nc(O[C@H](C)CN3CC(OC4CCN(CC(=O)N[C@H](C(=O)N5C[C@H](O)C[C@H]5C(=O)N[C@@H](C)c5ccc(-c6scnc6C)cc5)C(C)(C)C)CC4)C3)nc3c(F)c(-c4cc(O)cc5ccccc45)c(Cl)cc23)CC1 [Compound 46, (2S,4R)-1-[(2S)-2-{2-[4-({1-[(2R)-2-{[6-chloro-8-fluoro-7-(3-hydroxynaphthalen-1-yl)-4-[4-(prop-2-enoyl)piperazin-1-yl]quinazolin-2-yl]oxy}propyl]azetidin-3-yl}oxy)piperidin-1-yl]acetamido}-3,3-dimethylbutanoyl]-4-hydroxy-N-[(1S)-1-[4-(4-methyl-1,3-thiazol-5-yl)phenyl]ethyl]pyrrolidine-2-carboxamide] | 100 to 1000 | – | – | – | – | – | Dmax (HiBit-KRAS^G12C [1]; MIA PaCa-2, read-out: KRas^G12C-HiBiT (MiaPaCa; 0.1% DMSO) DMax, MiaPaCa-2 HiBit-KRas^G12C cells, 0.1% DMSO, maximum degradation): < 35%; Dmax (HiBit-KRAS^G12C [1]; MIA PaCa-2, read-out: KRas^G12C-HiBiT (MiaPaCa; 0.5% DMSO) DMax, MiaPaCa-2 HiBit-KRas^G12C cells, 0.5% DMSO, maximum degradation): 35 to 70%; Dmax (HiBit-KRAS^G12C [2]; SW1573, read-out: KRas^G12C-HiBiT (SW1573; 0.5% DMSO) Dmax**, SW1573 HiBit-KRas^G12C, 0.5% DMSO): 35 to 70%; Dmax (HiBit-KRAS^G12C [2]; SW1573, read-out: KRas^G12C-HiBit (SW1573; 0.1% DMSO) Dmax**, SW1573 HiBit-KRas^G12C, 0.1% DMSO): 35 to 70% |
| C=CC(=O)N1CCN(c2nc(OCCN3CCC(COCC(=O)N[C@H](C(=O)N4C[C@H](O)C[C@H]4C(=O)N[C@@H](C)c4ccc(-c5scnc5C)cc4)C(C)(C)C)CC3)nc3c(F)c(-c4cc(O)cc5ccccc45)c(Cl)cc23)CC1 [Compound 63, (2S,4R)-1-[(2S)-2-(2-{[1-(2-{[6-chloro-8-fluoro-7-(3-hydroxynaphthalen-1-yl)-4-[4-(prop-2-enoyl)piperazin-1-yl]quinazolin-2-yl]oxy}ethyl)piperidin-4-yl]methoxy}acetamido)-3,3-dimethylbutanoyl]-4-hydroxy-N-[(1S)-1-[4-(4-methyl-1,3-thiazol-5-yl)phenyl]ethyl]pyrrolidine-2-carboxamide] | 100 to 1000 | 35 to 70 | 35 to 70 | > 70 | – | – | Dmax (HiBit-KRAS^G12C [1]; [4]): 35 to 70% |
| C=CC(=O)N1CCN(c2nc(O[C@H](C)CN3CCC(COCC(=O)N[C@H](C(=O)N4C[C@H](O)C[C@H]4C(=O)N[C@@H](C)c4ccc(-c5scnc5C)cc4)C(C)(C)C)CC3)nc3c(F)c(-c4cc(O)cc5ccccc45)c(Cl)cc23)C[C@@H]1CC#N [Compound 152, (2S,4R)-1-[(2S)-2-[2-({1-[(2R)-2-({6-chloro-4-[(3S)-3-(cyanomethyl)-4-(prop-2-enoyl)piperazin-1-yl]-8-fluoro-7-(3-hydroxynaphthalen-1-yl)quinazolin-2-yl}oxy)propyl]piperidin-4-yl}methoxy)acetamido]-3,3-dimethylbutanoyl]-4-hydroxy-N-[(1S)-1-[4-(4-methyl-1,3-thiazol-5-yl)phenyl]ethyl]pyrrolidine-2-carboxamide] | – | 35 to 70 | – | > 70 | 100 to 1000 | 100 to 1000 | – |
| C=C(F)C(=O)N1CCN(c2nc(OCCN3CCC(COCC(=O)N[C@H](C(=O)N4C[C@H](O)C[C@H]4C(=O)N[C@@H](C)c4ccc(-c5scnc5C)cc4)C(C)(C)C)CC3)nc3c(F)c(-c4cc(O)cc5ccccc45)c(Cl)cc23)C[C@@H]1CC#N (atropisomer, axis not shown) [Compound 151, (2S,4R)-1-[(2S)-2-[2-({1-[2-({6-chloro-4-[(3S)-3-(cyanomethyl)-4-(2-fluoroprop-2-enoyl)piperazin-1-yl]-8-fluoro-7-(3-hydroxynaphthalen-1-yl)quinazolin-2-yl}oxy)ethyl]piperidin-4-yl}methoxy)acetamido]-3,3-dimethylbutanoyl]-4-hydroxy-N-[(1S)-1-[4-(4-methyl-1,3-thiazol-5-yl)phenyl]ethyl]pyrrolidine-2-carboxamide] | – | > 70 | – | > 70 | – | < 100 | – |
| C=CC(=O)N1CCN(c2nc(OCCN3CCC(COCC(=O)N[C@H](C(=O)N4C[C@@H](O)C[C@H]4C(=O)N[C@@H](C)c4ccc(-c5scnc5C)cc4)C(C)(C)C)CC3)nc3c(F)c(-c4cccc5cccc(C)c45)c(Cl)cc23)C[C@@H]1CC#N [Compound 97] | – | – | – | > 70 | > 1000 | > 1000 | – |
| C=C(F)C(=O)N1CCN(c2nc(O[C@H](C)CN3CCC(COCC(=O)N[C@H](C(=O)N4C[C@H](O)C[C@H]4C(=O)N[C@@H](C)c4ccc(-c5scnc5C)cc4)C(C)(C)C)CC3)nc3c2CCN(c2cc(O)cc4ccccc24)C3)C[C@@H]1CC#N [Compound 24, (2S,4R)-1-[(2S)-2-[2-({1-[(2R)-2-({4-[(3S)-3-(cyanomethyl)-4-(2-fluoroprop-2-enoyl)piperazin-1-yl]-7-(3-hydroxynaphthalen-1-yl)-5H,6H,7H,8H-pyrido[3,4-d]pyrimidin-2-yl}oxy)propyl]piperidin-4-yl}methoxy)acetamido]-3,3-dimethylbutanoyl]-4-hydroxy-N-[(1S)-1-[4-(4-methyl-1,3-thiazol-5-yl)phenyl]ethyl]pyrrolidine-2-carboxamide] | > 1000 | – | < 35 | – | – | – | Dmax (HiBit-KRAS^G12C [1]; [4]): < 35% |
| C=CC(=O)N1CCN(c2nc(OCCN3CCC4(CC3)CN(c3cc([C@H](C(=O)N5C[C@H](O)C[C@H]5C(=O)N[C@@H](C)c5ccc(-c6scnc6C)cc5)C(C)C)on3)C4)nc3c(F)c(-c4cc(O)cc5ccccc45)c(Cl)cc23)C[C@@H]1CC#N [Compound 139, (2S,4R)-1-[(2R)-2-(3-{7-[2-({6-chloro-4-[(3S)-3-(cyanomethyl)-4-(prop-2-enoyl)piperazin-1-yl]-8-fluoro-7-(3-hydroxynaphthalen-1-yl)quinazolin-2-yl}oxy)ethyl]-2,7-diazaspiro[3.5]nonan-2-yl}-1,2-oxazol-5-yl)-3-methylbutanoyl]-4-hydroxy-N-[(1S)-1-[4-(4-methyl-1,3-thiazol-5-yl)phenyl]ethyl]pyrrolidine-2-carboxamide] | – | – | – | – | 100 to 1000 | < 100 | KRas^G12C-HiBiT (MiaPaCa; 0.5% DMSO) DMax (HiBit-KRAS^G12C [1]; MiaPaCa-2 HiBit-KRas^G12C cells, 0.5% DMSO, maximum degradation): A (A ≥ 70); KRas^G12C-HiBiT (SW1573; 0.5% DMSO) Dmax** (HiBit-KRAS^G12C [2]; SW1573 HiBit-KRas^G12C, 0.5% DMSO): A (A ≥ 70) |
| C=CC(=O)N1CCN(c2nc(OCCN3CCC(COCC(=O)N[C@H](C(=O)N4C[C@H](O)C[C@H]4C(=O)N[C@@H](C)c4ccc(-c5scnc5C)cc4)C(C)(C)C)CC3)nc3c(F)c(-c4cccc5cccc(C)c45)c(Cl)cc23)C[C@@H]1CC#N [Compound 135, (2S,4R)-1-[(2S)-2-[2-({1-[2-({6-chloro-4-[(3S)-3-(cyanomethyl)-4-(prop-2-enoyl)piperazin-1-yl]-8-fluoro-7-(8-methylnaphthalen-1-yl)quinazolin-2-yl}oxy)ethyl]-piperidin-4-yl}methoxy)acetamido]-3,3-dimethylbutanoyl]-4-hydroxy-N-[(1S)-1-[4-(4-methyl-1,3-thiazol-5-yl)phenyl]ethyl]pyrrolidine-2-carboxamide] | – | 35 to 70 | – | 35 to 70 | 100 to 1000 | 100 to 1000 | – |
| C=CC(=O)N1CCN(c2nc(O[C@H](C)CN3CCC(OCCOCCOCCOc4cc(-c5scnc5C)ccc4CNC(=O)[C@@H]4C[C@@H](O)CN4C(=O)[C@H](c4cc(C)no4)C(C)C)CC3)nc3c(F)c(-c4cc(O)cc5ccccc45)c(Cl)cc23)CC1 [Compound 69, (2S,4R)-N-{[2-(2-{2-[2-({1-[(2R)-2-{[6-chloro-8-fluoro-7-(3-hydroxynaphthalen-1-yl)-4-[4-(prop-2-enoyl)piperazin-1-yl]quinazolin-2-yl]oxy}propyl]piperidin-4-yl}oxy)ethoxy]ethoxy}ethoxy)-4-(4-methyl-1,3-thiazol-5-yl)phenyl]methyl}-4-hydroxy-1-[(2S)-3-methyl-2-(3-methyl-1,2-oxazol-5-yl)butanoyl]pyrrolidine-2-carboxamide] | 100 to 1000 | – | 35 to 70 | – | – | – | DC50 (HiBit-KRAS^G12C [1]; read-out: KRas^G12C-HiBiT (MiaPaCa; 0.1% DMSO) IC50, MiaPaCa-2 HiBit-KRas^G12C cells, 0.1% DMSO): > 1000 nM |
